Experimental data from patent US7541374B2, “Malononitrile compounds and use thereof” (Sumitomo Chemical Company, Limited, priority 2004, dated 2009).

Columns and labels:
Assay type in all cases: in vivo
Musca domestica = test: Test Example 3: treated filter paper with sucrose bait, Musca domestica; details: 500 ppm, 0.7 ml on filter paper; ten female Musca domestica imagoes; after 24 hours; read-out: rate of dead pests
Procedure: (§1) The formulation obtained according to Formulation Example 5 using the compound of the present invention (2), (3), (4), (6), (7), (8), (11), (12), (13), (15), (16), (19), (20), (21), (22), (28), (29), (30), (31), (32), (33), (34), (36), (37), (38) and (39) respectively, was diluted with water so that the active ingredient concentration came to 500 ppm to prepare a pesticidal solution for test.
(§2) On the bottom of a polyethylene cup having a diameter of 5.5 cm, a filter paper having the same diameter was laid, and 0.7 ml of the above pesticidal solution for test was added dropwise on the filter paper, followed by putting 30 mg of sucrose on it uniformly as a bait. Ten female Musca domestica imagoes were set free in the polyethylene cup and covered it with a lid. After 24 hours, the number of surviving and dead Musca domestica was examined and the rate of dead pests was calculated.

Blattella germanica = test: Test Example 4: treated filter paper with sucrose bait, Blattella germanica; details: 144 h; 500 ppm, 0.7 ml on filter paper; two male Blattella germanica imagoes; after 6 days; read-out: rate of dead pests
Procedure: as §1, with “(8), (9),” for “(8),”, “(16), (18),” for “(16),”, “(22), (27),” for “(22),”, “(34), (35),” for “(34),”, “(38), (43)” for “(38)”, “[…]” for “(39)”
as §2, with “Two male Blattella germanica” for “Ten female Musca domestica”, “6 days,” for “24 hours,”, “Blattella germanica” for “Musca domestica”

Culex pipiens pallens = test: Test Example 5: larvae in treated water, Culex pipiens pallens; details: 24 h; active ingredient concentration 3.5 ppm in water; twenty last-instar larvae of Culex pipiens pallens; after one day; read-out: rate of dead pests
Procedure: The formulation obtained according to Formulation Example 5 using the compound of the present invention (1), (2), (3), (4), (5), (6), (7), (8), (9), (10), (11), (12), (13), (14), (15), (16), (17), (18), (19), (20), (21), (22), (23), (25), (27), (28), (29), […], (31), (32), (33), (34), (35), (36), (37), (38), (39), (41), (44), (45), (46), (47) and (48) respectively, was diluted with water so that the active ingredient concentration came to 500 ppm to prepare a pesticidal solution for test.
0.7 ml of above pesticidal solution for test was added to 100 ml of ion exchanged water (active ingredient concentration: 3.5 ppm). Twenty last-instar larvae of Culex pipiens pallens were set free in the solution. After one day, the number of surviving and dead Culex pipiens pallens was examined and the rate of dead pests was calculated.

Q: How did the pest or weed control at 500 ppm (Musca domestica) turn out when `CC(C)(C)c1nn(CC(C#N)(C#N)CCC(F)(F)F)cc1Br` [compound of the present invention (12), [(4-bromo-3-t-butyl-1H-pyrazole-1-yl)methyl](3,3,3-trifluoropropyl) malononitrile] was run?
A: ≥ 90%

Q: And the pest or weed control at 500 ppm (Blattella germanica)?
A: 100%

Q: What about the pest or weed control at 3.5 ppm (Culex pipiens pallens) of the same compound?
A: ≥ 95%

Q: `CC(C)(C)c1nn(CC(C#N)(C#N)CCC(F)(F)F)cc1Cl` [compound of the present invention (13), [(4-chloro-3-t-butyl-1H-pyrazole-1-yl)methyl](3,3,3-trifluoropropyl) malononitrile] was tested. Which pest or weed control at 500 ppm (Musca domestica) did it give?
A: ≥ 90%

Q: What about the pest or weed control at 500 ppm (Blattella germanica) of the same compound?
A: 100%

Q: And the pest or weed control at 3.5 ppm (Culex pipiens pallens)?
A: ≥ 95%

Q: How did the pest or weed control at 500 ppm (Musca domestica) turn out when `N#CC(C#N)(CCC(F)(F)F)Cn1cc(Br)c(C(F)(F)F)n1` [compound of the present invention (15), [(4-bromo-3-trifluoromethyl-1H-pyrazole-1-yl)methyl](3,3,3-trifluoropropyl) malononitrile] was run?
A: ≥ 90%

Q: What about the pest or weed control at 500 ppm (Blattella germanica) of the same compound?
A: 100%

Q: What about the pest or weed control at 3.5 ppm (Culex pipiens pallens) of the same compound?
A: ≥ 95%

Q: `C=CCC(C#N)(C#N)Cn1cc(Br)c(C(F)(F)F)n1` [compound of the present invention (16)] was tested. Which pest or weed control at 500 ppm (Musca domestica) did it give?
A: ≥ 90%

Q: And the pest or weed control at 500 ppm (Blattella germanica)?
A: 100%

Q: What about the pest or weed control at 3.5 ppm (Culex pipiens pallens) of the same compound?
A: ≥ 95%

Q: With `N#CC(C#N)(CCC(F)(F)F)Cn1cc(Cl)cn1` [compound of the present invention (19), [(4-chloro-1H-pyrazole-1-yl)methyl](3,3,3-trifluoropropyl) malononitrile] as the compound, how does the pest or weed control at 500 ppm (Musca domestica) read?
A: ≥ 90%

Q: What about the pest or weed control at 500 ppm (Blattella germanica) of the same compound?
A: 100%

Q: What about the pest or weed control at 3.5 ppm (Culex pipiens pallens) of the same compound?
A: ≥ 95%

Q: Which results are given for `C=CCC(C#N)(C#N)Cn1cc(Cl)cn1` [compound of the present invention (20), allyl [(4-chloro-1H-pyrazole-1-yl)methyl]malononitrile]?
A: pest or weed control at 500 ppm (Musca domestica): ≥ 90%; pest or weed control at 500 ppm (Blattella germanica): 100%; pest or weed control at 3.5 ppm (Culex pipiens pallens): ≥ 95%

Q: How did the pest or weed control at 500 ppm (Musca domestica) turn out when `N#CC(C#N)(CCC(F)(F)F)Cn1cc(Br)cn1` [compound of the present invention (21), [(4-bromo-1H-pyrazole-1-yl)methyl](3,3,3-trifluoropropyl) malononitrile] was run?
A: ≥ 90%

Q: And the pest or weed control at 500 ppm (Blattella germanica)?
A: 100%

Q: And the pest or weed control at 3.5 ppm (Culex pipiens pallens)?
A: ≥ 95%

Q: `N#CC(C#N)(CCC(F)(F)F)Cn1cc(C(F)(F)F)cn1` [compound of the present invention (22), {[4-(trifluoromethyl)-1H-pyrazole-1-yl]methyl}(3,3,3-trifluoropropyl) malononitrile] was tested. Which pest or weed control at 500 ppm (Musca domestica) did it give?
A: ≥ 90%

Q: What about the pest or weed control at 500 ppm (Blattella germanica) of the same compound?
A: 100%

Q: What about the pest or weed control at 3.5 ppm (Culex pipiens pallens) of the same compound?
A: ≥ 95%

Q: What does the source list for `CC(C)c1ncn(CC(C#N)(C#N)CCC(F)(F)F)n1` [compound of the present invention (28), [(3-i-propyl-1H-1,2,4-triazole-1-yl)methyl](3,3,3-trifluoropropyl) malononitrile]?
A: pest or weed control at 500 ppm (Musca domestica): ≥ 90%; pest or weed control at 500 ppm (Blattella germanica): 100%; pest or weed control at 3.5 ppm (Culex pipiens pallens): ≥ 95%

Q: Which pest or weed control at 500 ppm (Musca domestica) does the source give for `CC(C)(C)c1ncn(CC(C#N)(C#N)CCC(F)(F)F)n1` [compound of the present invention (29), [(3-t-butyl-1H-1,2,4-triazole-1-yl)methyl](3,3,3-trifluoropropyl) malononitrile] here?
A: ≥ 90%

Q: What about the pest or weed control at 500 ppm (Blattella germanica) of the same compound?
A: 100%

Q: And the pest or weed control at 3.5 ppm (Culex pipiens pallens)?
A: ≥ 95%

Q: How did the pest or weed control at 500 ppm (Musca domestica) turn out when `C=CCC(C#N)(C#N)Cn1cnc(C(C)(C)C)n1` [compound of the present invention (31), allyl [(3-t-butyl-1H-1,2,4-triazole-1-yl)methyl]malononitrile] was run?
A: ≥ 90%

Q: And the pest or weed control at 500 ppm (Blattella germanica)?
A: 100%

Q: And the pest or weed control at 3.5 ppm (Culex pipiens pallens)?
A: ≥ 95%

Q: How did the pest or weed control at 500 ppm (Musca domestica) turn out when `CC(C)(C)c1nc(Br)n(CC(C#N)(C#N)CCC(F)(F)F)n1` [compound of the present invention (32), [(5-bromo-3-t-butyl-1H-1,2,4-triazole 1-yl)methyl](3,3,3-trifluoropropyl)malononitrile] was run?
A: ≥ 90%

Q: And the pest or weed control at 500 ppm (Blattella germanica)?
A: 100%

Q: And the pest or weed control at 3.5 ppm (Culex pipiens pallens)?
A: ≥ 95%
